In one test the test system is C. elegans. Set-up: method as in earlier work. As to conditions: earlier phenotypic screen ref 11; cited from earlier work.
The subject of another test is MGLUR8. Put plainly: Cell-based mGluR activity assay. Further details: species or system human. Particulars: 10 µM B16. Here is the method: (§1) Tachykinin, ghrelin, and calcium-sensing receptor activity were measured using a cell-based Ca flux assay by Multispan, Inc. (Hayward, California). Cholescystokinin A and B receptors were assayed for effects on cAMP production, and nicotinic acid receptor activity was measured in a cell-based assay of forskolin-stimulated cAMP production by Multispan, Inc. […], PP2A phosphatase activity assays were performed by CEREP (Celle l'Evescault, France) using PP2A from human erythrocytes. Phospholipase C from Bacillus cereus was assayed by CEREP, Inc. using glycero-phosphatidyl ethanolamine as a substrate, monitoring diacyl glycerol production. Radioligand binding assays for PPAR-α, γ, δ and the androgen receptor were performed by CEREP, Inc. CARNA Biosciences (Kobe, Japan) performed in vitro kinase activity assays using recombinant catalytic domains and measured phosphorylation of an Src-derived peptide for Flt-3 and phosphatidyl inositol for PI3KCA. Radioligand binding assays for the oxytocin receptor, D4 dopamine receptor, cannabinoid CB2 receptor, and angiotensin type I and II receptors were performed as described previously, as were cell-based activity assays for mGluR 1a, 2, 4, 5, 6, and 8 [60]–[62].
Table S2. Activity of 10 µM B16 on human metabotropic glutamate receptors. […]

Another test concerns the target T1, mglur-8 (Rattus norvegicus, UniProt P70579).
T1 construct: expressed in transfected cells; host or cells: CHO cells
Nature of the test: Cell-based mGluR-8 activity assay, CHO cells stimulated with 1 µM L-AP4, concentration response. The procedure:
as §1
(§2) Supplementary file pbio.1001712.s001.tif: Figure S1 Dose-response measurements that validate SEA predictions for GPCRs. […]

The next test deals with wild-type C. elegans. Put plainly: Pharyngeal pumping assay. Format: in vivo. Particulars: for increase in pharyngeal pumping / exposure time after which the feeding elevating effect was notable: 10 µM; for increase in pharyngeal pumping: cultured 3 d from L1, long-term video (60 s) and short-term manual (10 s) measurements; for exposure time after which the feeding elevating effect was notable: naïve day 1 gravid adults; for effect on the pharyngeal pumping rate: 10 µM versus 0.1% DMSO; for EC50: Caenorhabditis elegans, read-out: EC50 of the dose-dependent increase in the pharyngeal pumping rate. Here is the method: (§3) Compounds at 1,000× stock concentrations (0.1–10 mM) in DMSO or an equal volume of DMSO were diluted in a suspension of E. coli OP-50 (100 µl of a 3× concentrated overnight culture in LB broth) and absorbed as a single drop onto 3.5 cm plates containing 2.5 ml of NGM agar forming a well-defined lawn of bacteria. For developmental exposures, 20–30 synchronized first larval stage C. elegans derived from alkaline hypochlorite treatment of gravid adults were applied to the preseeded plates and cultured until assay at mid-L4 stage (2 d, 20°C) or as day 1 gravid adults (3 d, 20°C). For naïve adult exposures, synchronized first larval stage animals were cultured on NGM-agar plates seeded with E. coli OP-50 for 3 d at 20°C, then transferred to assay plates, and pumping was assayed 1 to 16 h later. Comparisons between vehicle-treated and compound-treated animals were always performed between animals at the same developmental stage and same exposure time. Pharyngeal pumping was counted by live observation at 115–200× magnification using a stereo microscope and recorded at 10 s intervals using a manually controlled digital cell counter. Alternatively, C. elegans pumping was recorded for longer intervals (30–60 s) using bright-field time-lapse microscopy at 120× magnification with a 20 images per second acquisition rate. The resulting movies were analyzed manually at a playback rate of 10 images per second.
(§4) Significance was determined by one-way ANOVA applying a Dunnett's posttest when comparing multiple treatments to a single control and a Bonferroni posttest when comparing the more than two treatments against one another. For pairwise nonrepeated measured comparisons, a student's t test was used. To express data as a percentage of control, the pumping rates of compound-treated animals were divided by the mean pumping rate of the DMSO-treated wild-type animals measured in the same experiment, unless indicated otherwise. Error bars on the control samples indicate the variation around that mean, which is utilized in all statistical calculations.

Test [1] concerns mgl-2(tm355) mutant C. elegans. Nature of the test: Pharyngeal pumping assay, compound on high-feeding mutant. Format: in vivo. As to conditions: to C. elegans mgl-2 (F45H11.4), homolog of human mGluR-8. The procedure: as §3, §4
(§5) The pumping rates are expressed as a percentage of the mutant’s pumping rate on DMSO, the vehicle control. p-values were calculated relative to DMSO treatment of each mutant by one-way ANOVA using Dunnett’s multiple comparison test.

Another test concerns the target T2, MGLUR4 (Homo sapiens, UniProt Q14833).
T2 construct: expressed in transfected cells
Put plainly: Cell-based mGluR activity assay. As to conditions: 10 µM B16. Here is the method:
as §1
(§6) Table S2. Activity of 10 µM B16 on human metabotropic glutamate receptors.
(§7) ^a Data are normalized to the maximum response of cells treated with 1 mM glutamate or 0.1 mM AP4 alone.
(§8) ^b Percent difference in maximum activity of cells treated with glutamate or AP4 with B16 vehicle versus concurrent treatment with 10 µM B16.

Another test addresses T3, MGLUR6 (Homo sapiens, UniProt O15303).
T3 construct: expressed in transfected cells
Put plainly: Cell-based mGluR activity assay. Particulars: 10 µM B16. Here is the method:
as §1, §6, §7, §8

A further test has as its target T4, MGLUR1a (Homo sapiens, UniProt Q13255).
T4 construct: expressed in transfected cells
Nature of the test: Cell-based mGluR activity assay. Particulars: 10 µM B16. The procedure:
as §1, §6, §7, §8

For the next test, the target named is T5, MGLUR5 (Homo sapiens, UniProt P41594).
T5 construct: expressed in transfected cells
T5 sequence (P41594 21-1212): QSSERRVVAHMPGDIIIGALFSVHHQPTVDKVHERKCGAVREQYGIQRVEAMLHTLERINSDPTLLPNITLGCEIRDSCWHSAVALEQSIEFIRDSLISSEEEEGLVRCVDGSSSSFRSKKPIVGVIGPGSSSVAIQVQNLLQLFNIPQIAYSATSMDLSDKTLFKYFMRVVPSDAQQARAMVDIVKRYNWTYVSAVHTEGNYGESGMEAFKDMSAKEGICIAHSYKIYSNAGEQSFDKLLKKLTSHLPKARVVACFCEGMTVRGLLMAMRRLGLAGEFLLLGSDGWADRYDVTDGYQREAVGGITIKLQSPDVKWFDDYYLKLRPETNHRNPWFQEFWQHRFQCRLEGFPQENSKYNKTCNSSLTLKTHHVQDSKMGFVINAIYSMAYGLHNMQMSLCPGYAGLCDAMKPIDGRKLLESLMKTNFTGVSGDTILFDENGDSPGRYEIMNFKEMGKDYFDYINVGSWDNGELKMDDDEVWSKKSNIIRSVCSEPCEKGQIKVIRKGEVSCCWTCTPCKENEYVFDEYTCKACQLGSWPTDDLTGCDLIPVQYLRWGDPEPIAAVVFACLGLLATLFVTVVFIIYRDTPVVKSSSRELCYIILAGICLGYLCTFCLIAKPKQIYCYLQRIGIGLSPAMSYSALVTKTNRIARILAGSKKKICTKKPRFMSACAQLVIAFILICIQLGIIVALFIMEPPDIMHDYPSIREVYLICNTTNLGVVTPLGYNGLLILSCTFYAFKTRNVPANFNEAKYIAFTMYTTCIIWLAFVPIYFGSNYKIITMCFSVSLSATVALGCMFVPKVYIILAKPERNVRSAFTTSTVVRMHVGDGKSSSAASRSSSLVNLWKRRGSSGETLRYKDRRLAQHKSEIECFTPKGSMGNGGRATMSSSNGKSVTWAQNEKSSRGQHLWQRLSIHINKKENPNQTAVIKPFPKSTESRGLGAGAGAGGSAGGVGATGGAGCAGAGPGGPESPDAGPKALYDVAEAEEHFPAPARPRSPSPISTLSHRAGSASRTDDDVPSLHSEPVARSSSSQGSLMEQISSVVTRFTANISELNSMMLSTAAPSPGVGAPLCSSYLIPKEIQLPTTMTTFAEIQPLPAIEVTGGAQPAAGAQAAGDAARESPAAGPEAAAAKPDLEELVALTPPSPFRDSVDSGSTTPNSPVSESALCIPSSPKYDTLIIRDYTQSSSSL
Put plainly: Cell-based mGluR activity assay. Here is the method: as §1, §6, §7, §8

Another test addresses T6, MGLUR2 (Homo sapiens, UniProt Q14416).
T6 construct: expressed in transfected cells
Nature of the test: Cell-based mGluR activity assay. As to conditions: 10 µM B16. The procedure:
as §1, §6, §7, §8

For the next test, the target named is T7, flt-3 receptor (CD135) (Homo sapiens, UniProt P36888).
T7 construct: Flt-3 receptor catalytic domain (amino acids 564–993); purchased CARNA Biosciences (Kobe, Japan)
T7 sequence (P36888 564-993): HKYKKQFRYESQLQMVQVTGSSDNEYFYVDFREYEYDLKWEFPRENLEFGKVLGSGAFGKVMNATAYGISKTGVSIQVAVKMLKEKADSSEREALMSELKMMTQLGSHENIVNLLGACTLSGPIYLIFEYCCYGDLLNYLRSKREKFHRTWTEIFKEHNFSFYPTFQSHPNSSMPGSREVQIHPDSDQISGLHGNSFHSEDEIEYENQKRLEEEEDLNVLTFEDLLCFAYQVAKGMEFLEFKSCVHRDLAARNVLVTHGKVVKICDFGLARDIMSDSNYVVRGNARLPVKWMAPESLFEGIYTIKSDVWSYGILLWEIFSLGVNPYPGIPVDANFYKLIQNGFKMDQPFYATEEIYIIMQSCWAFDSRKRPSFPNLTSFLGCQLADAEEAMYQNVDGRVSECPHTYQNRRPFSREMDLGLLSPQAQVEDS
Put plainly: In vitro kinase activity assay, recombinant Flt-3 receptor catalytic domain, srctide phosphorylation (CARNA). The class given is biochemical. The procedure:
as §1, with “Radioligand binding assays for the oxytocin receptor, D4 dopamine receptor, cannabinoid CB2 receptor, and angiotensin type I and II receptors were performed as described previously, as were cell-based activity assays for mGluR 1a, 2, 4, 5, 6, and 8 [60]–[62].” left out
(§9) Supplementary file pbio.1001712.s002.tif: Figure S2 Dose-dependent inhibitory activity for compounds predicted by SEA to inhibit kinases. (A–B) Varying concentrations of J6 and L10 were incubated with full-length recombinant human PI3KCA and ATP (50 µM) for 5 h and the phosphorylation level of the substrate phosphatidylinositol was measured. […]

Test [2] deals with ver-3(ok891) mutant C. elegans. Put plainly: Pharyngeal pumping assay, compound on high-feeding mutant. The class given is in vivo. As to conditions: to C. elegans ver-3 (F59F3.1), homolog of human Flt-3 receptor. Here is the method:
as §3, §4, §5

The target of another test is oxytocin receptor (Homo sapiens, UniProt P30559). Nature of the test: Radioligand binding assay, 3H-oxytocin binding to the oxytocin receptor. The procedure: as §1, §2
Test [3] deals with gnrr-1(ok238) mutant C. elegans. Nature of the test: Pharyngeal pumping assay, compound on high-feeding mutant. Particulars: to C. elegans gnrr-1 (F54D7.3), homolog of human Oxtr. Format: in vivo. The procedure: as §3, §4, §5
The next test has as its target androgen receptor (Homo sapiens, UniProt P10275). Put plainly: Radioligand binding assay, 3H-Mibolerone binding to the androgen receptor (CEREP). Here is the method:
as §1, with “[60]-[62]. Supplementary file pbio.1001712.s003.tif: Figure S3 Dose-response relationships for compounds that bind nuclear hormone receptors. […]” for “[60]–[62].”

Another test concerns the target dopamine receptor D4 (Homo sapiens, UniProt P21917). Put plainly: Radioligand binding assay, 3H-risperidone binding to the dopamine D4 receptor. Here is the method:
as §1, §2

Another test addresses T8, PPAR-γ (Homo sapiens, UniProt P37231).
T8 construct: CEREP, Inc. (assay run by the contract laboratory)
Put plainly: Radioligand binding assay, 3H-Rosiglitazone binding to PPAR-γ (CEREP). Here is the method: as §1
Supplementary file pbio.1001712.s003.tif: Figure S3 Dose-response relationships for compounds that bind nuclear hormone receptors. […]

The target in the next test is T9, PI3K p110α (Homo sapiens, UniProt P42336).
T9 construct: full-length recombinant human PI3KCA; purchased CARNA Biosciences (Kobe, Japan)
Nature of the test: In vitro kinase activity assay, recombinant PI3KCA, phosphatidylinositol phosphorylation (CARNA). The class given is biochemical. As to conditions: marked with footnote d in Figure 2; 50 µM ATP, 5 h. Here is the method: as §1, with “Radioligand binding assays for the oxytocin receptor, D4 dopamine receptor, cannabinoid CB2 receptor, and angiotensin type I and II receptors were performed as described previously, as were cell-based activity assays for mGluR 1a, 2, 4, 5, 6, and 8 [60]–[62].” left out
as §9

[4] abbreviates: normalized to the maximum response of cells treated with 1 mM glutamate or 0.1 mM AP4 alone.
The mark [5] stands for this setting: percent difference in maximum activity of cells treated with glutamate or AP4 with vehicle versus B16.
Setting [6] is: wild-type, serial 3-fold dilutions.

One may read the % inhibition as the drop in the measured response relative to a control, in per cent. A lower % inhibition goes with a response near the control. For orientation: Ki means a dissociation constant, usually derived from enzyme kinetics or from competition with a known ligand. Broadly, the inhibition is the drop in the measured response relative to a control, in per cent. For orientation: EC50 means the concentration giving half of the maximal effect.

T3 sequence (O15303 25-877): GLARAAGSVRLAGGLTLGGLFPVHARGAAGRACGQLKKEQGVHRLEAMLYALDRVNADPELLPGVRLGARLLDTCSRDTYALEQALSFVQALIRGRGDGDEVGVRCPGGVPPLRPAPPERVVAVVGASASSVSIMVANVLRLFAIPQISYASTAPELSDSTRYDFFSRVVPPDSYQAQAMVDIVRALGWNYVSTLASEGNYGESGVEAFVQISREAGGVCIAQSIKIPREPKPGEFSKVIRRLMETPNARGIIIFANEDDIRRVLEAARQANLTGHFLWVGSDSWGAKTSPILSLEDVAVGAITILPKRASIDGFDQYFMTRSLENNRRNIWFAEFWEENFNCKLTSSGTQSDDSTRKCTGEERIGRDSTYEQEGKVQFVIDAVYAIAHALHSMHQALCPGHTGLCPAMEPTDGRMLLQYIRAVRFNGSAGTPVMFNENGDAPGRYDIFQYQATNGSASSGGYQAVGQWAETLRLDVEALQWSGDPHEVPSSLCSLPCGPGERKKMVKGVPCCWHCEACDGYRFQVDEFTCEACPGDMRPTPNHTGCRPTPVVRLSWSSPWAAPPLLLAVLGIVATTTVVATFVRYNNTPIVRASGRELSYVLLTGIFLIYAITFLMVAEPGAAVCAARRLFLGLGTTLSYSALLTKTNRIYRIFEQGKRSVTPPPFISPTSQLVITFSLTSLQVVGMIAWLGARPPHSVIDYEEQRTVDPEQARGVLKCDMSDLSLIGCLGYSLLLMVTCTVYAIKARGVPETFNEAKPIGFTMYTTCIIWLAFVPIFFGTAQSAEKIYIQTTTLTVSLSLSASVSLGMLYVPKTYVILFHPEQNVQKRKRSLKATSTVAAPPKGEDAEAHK
T6 sequence (Q14416 19-872): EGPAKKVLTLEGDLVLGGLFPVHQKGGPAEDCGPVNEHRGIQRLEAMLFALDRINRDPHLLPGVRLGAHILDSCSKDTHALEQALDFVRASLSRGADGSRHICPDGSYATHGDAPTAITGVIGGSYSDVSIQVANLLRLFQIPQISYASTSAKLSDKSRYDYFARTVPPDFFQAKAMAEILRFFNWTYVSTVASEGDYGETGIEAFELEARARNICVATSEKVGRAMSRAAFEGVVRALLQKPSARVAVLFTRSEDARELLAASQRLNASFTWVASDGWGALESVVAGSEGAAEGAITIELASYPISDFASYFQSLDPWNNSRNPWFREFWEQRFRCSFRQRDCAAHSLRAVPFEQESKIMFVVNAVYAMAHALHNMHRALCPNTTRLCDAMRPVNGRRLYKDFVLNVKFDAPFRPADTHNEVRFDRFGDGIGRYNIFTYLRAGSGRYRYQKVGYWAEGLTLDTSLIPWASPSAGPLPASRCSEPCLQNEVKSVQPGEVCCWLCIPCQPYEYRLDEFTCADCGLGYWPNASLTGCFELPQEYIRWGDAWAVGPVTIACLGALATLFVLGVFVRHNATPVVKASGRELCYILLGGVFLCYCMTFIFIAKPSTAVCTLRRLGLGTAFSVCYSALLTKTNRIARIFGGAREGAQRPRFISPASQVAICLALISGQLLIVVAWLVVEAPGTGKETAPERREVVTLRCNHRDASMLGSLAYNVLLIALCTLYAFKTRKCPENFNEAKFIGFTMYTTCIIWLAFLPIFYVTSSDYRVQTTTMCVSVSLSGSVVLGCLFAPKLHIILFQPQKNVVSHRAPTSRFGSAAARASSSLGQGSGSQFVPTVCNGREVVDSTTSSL
T4 sequence (Q13255 19-1194): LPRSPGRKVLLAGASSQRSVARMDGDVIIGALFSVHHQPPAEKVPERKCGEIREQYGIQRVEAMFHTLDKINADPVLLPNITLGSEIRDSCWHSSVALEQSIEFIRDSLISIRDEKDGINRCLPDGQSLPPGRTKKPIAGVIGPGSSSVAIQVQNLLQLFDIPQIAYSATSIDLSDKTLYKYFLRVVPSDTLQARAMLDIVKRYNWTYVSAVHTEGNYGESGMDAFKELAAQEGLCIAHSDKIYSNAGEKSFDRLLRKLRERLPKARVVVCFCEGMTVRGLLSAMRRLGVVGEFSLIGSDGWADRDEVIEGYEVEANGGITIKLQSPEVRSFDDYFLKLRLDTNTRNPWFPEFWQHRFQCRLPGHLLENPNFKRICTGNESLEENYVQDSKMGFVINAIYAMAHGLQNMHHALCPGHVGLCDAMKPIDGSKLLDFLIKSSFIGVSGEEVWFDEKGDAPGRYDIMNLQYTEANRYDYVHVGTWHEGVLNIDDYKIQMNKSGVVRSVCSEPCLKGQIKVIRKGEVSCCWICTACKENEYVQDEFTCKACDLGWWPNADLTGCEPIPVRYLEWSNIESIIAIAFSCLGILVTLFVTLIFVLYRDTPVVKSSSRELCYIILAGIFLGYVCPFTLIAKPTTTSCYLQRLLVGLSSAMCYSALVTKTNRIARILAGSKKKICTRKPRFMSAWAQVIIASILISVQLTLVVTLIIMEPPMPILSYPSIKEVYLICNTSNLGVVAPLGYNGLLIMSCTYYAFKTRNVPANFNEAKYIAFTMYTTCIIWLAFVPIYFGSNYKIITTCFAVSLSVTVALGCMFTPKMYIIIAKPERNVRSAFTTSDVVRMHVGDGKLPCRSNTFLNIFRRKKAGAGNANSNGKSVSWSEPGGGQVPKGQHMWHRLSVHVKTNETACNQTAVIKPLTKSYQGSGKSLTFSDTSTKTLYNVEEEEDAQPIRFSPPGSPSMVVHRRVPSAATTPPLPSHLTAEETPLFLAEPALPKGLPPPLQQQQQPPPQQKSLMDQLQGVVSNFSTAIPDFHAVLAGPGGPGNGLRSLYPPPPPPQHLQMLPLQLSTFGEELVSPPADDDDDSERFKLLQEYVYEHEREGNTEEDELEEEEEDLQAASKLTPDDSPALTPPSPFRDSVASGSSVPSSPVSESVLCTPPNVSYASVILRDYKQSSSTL
dopamine receptor D4, sequence (P21917 whole entry): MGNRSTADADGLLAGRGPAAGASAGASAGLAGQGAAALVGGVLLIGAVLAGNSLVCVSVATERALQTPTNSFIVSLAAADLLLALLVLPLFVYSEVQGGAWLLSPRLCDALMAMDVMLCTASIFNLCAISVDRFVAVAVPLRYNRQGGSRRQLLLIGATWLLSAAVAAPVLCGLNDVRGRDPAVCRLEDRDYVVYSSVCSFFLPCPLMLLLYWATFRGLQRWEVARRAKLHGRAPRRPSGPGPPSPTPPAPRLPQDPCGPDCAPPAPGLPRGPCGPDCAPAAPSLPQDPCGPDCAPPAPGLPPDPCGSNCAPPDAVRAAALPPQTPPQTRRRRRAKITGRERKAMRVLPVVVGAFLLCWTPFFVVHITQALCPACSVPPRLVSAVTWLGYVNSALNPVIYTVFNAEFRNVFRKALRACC

On to `Cc1cc(C)c2c(N)c(C(=O)Nc3ccccn3)sc2n1` [B16], for which, in the test on C. elegans, the “Nile Red staining” value is recorded as “decreased”. The “% agonism” value is reported as -3% with MGLUR8 (setting [4]); -8% on MGLUR4 (setting [4]); 13% at MGLUR6 (setting [4]); -4% on MGLUR1a (setting [4]); -14% on MGLUR5 (10 µM B16, normalized to the maximum response of cells treated with 1 mM glutamate or 0.1 mM AP4 alone); 0% at MGLUR2 (setting [4]). Moreover, the “% inhibition” value with MGLUR8 (setting [5]) was found to be 49%. Also, the values for the inhibition constant (Ki) at mglur-8 and at MGLUR5 (Figure 2) were 9.8 µM and above 30 µM, respectively. Moreover, the “increase in pharyngeal pumping” value in the test on wild-type C. elegans is reported as 7%–12%. Also, in the test on wild-type C. elegans, the “exposure time after which the feeding elevating effect was notable” value (from here on “exposure time”) was at most 1 h. In addition, the “effect on the pharyngeal pumping rate” value in the test on wild-type C. elegans (wild-type) is given as “increased”. Further, in test [1], the Pharmacological relationship entry was “antagonist”. Moreover, the inhibition at 10 µM is 4% against MGLUR4 (setting [5]); -17% at MGLUR6 (setting [5]); 24% against MGLUR1a (setting [5]); 11% at MGLUR5 (10 µM B16, percent difference in maximum activity of cells treated with glutamate or AP4 with vehicle versus B16); 12% against MGLUR2 (setting [5]).
With `Cc1sc(NC(=O)c2ccccc2Br)c(C(N)=O)c1C` [D20], the “Nile Red staining” value in the test with C. elegans is recorded as “decreased”. At flt-3 receptor (CD135) (marked with footnote d in Figure 2, 100 µM ATP, 1 h), the Ki was determined as 0.169 µM. Besides, in the test with wild-type C. elegans, the “increase in pharyngeal pumping” value was 7%–12% and the “exposure time” value is listed as at most 1 h. The 50% effective concentration (EC50) in the test on wild-type C. elegans (setting [6]) is 0.6 µM. Moreover, the “effect on the pharyngeal pumping rate” value in the test on wild-type C. elegans (wild-type) is given as “increased”. Also, the Pharmacological relationship result in [2] is listed as “antagonist”.
In the case of `COc1ccc(N(CC(=O)NCc2ccco2)S(=O)(=O)c2ccccc2)cc1Cl` [F15], the “Nile Red staining” value in the test with C. elegans is recorded as “decreased”. The molecule further gave a Ki on oxytocin receptor of 1.8 µM. In the test on wild-type C. elegans, the “increase in pharyngeal pumping” value was 7%–12% and the “exposure time” value is reported as at most 1 h. For the same molecule, the concentration for a half-maximal effect (EC50) in the test on wild-type C. elegans (setting [6]) stood at 0.4 µM. Besides, the “effect on the pharyngeal pumping rate” value with wild-type C. elegans (wild-type) is on record as “increased”. The Pharmacological relationship entry in test [3] is given as “antagonist”.
`CC12C(=O)N(c3ccc(Cl)c(Cl)c3)C(=O)C1C1C=CC2C1` (centres unmarked) [G6] came in with a Ki at androgen receptor of 0.0086 µM.
For `O=C(CN1CCN(c2ccccc2)CC1)Nc1cc(C(F)(F)F)ccc1Cl` [G7], the inhibition constant Ki on dopamine receptor D4 is 1.9 µM.
Molecule `O=C(Nc1ccccc1C(=O)O)c1ccc(Br)c(S(=O)(=O)N2CCCCC2)c1` [I10] returned a Ki at PPAR-γ of 1.3 µM.
On to `Cc1nc(N2CCOCC2)c2oc3ccccc3c2n1` [J6], for which the inhibition constant Ki at PI3K p110α came to 4.6 µM.
Regarding `CC1CCc2c(sc(NC(=O)c3cccs3)c2C(N)=O)C1` (centres unmarked) [K9], at flt-3 receptor (CD135) (Table S1 (not readable)), the “activity on the predicted mammalian target Flt-3 kinase in vitro” value was “fail to modulate”. Moreover, the “effect on feeding rate” value in the test with wild-type C. elegans (setting [6]) was “dose-dependent increase”.
For `O=C1NC(=O)/C(=C\c2ccc(-c3cccc(Br)c3)o2)S1` [L10], at PI3K p110α, the Ki amounted to 2.9 µM.
As for `CC[C@H](NC(=O)c1c(C)c(-c2ccccc2)nc2ccccc12)c1ccccc1` [SB222200, reference compound], the effect on feeding entry with wild-type C. elegans (wild-type, 200 nM) was “increased feeding”.

The record behind these values is PMC3833878, “In Silico Molecular Comparisons of C. elegans and Mammalian Pharmacology Identify Distinct Targets That Regulate Feeding” (PLoS Biology, 2013).
